This is an account of results in PubChem BioAssay (NCI).

Common to all, as to test: DTP human tumour cell line panel, 48 h
In assay [1] the test system is ACHN renal.
The test system of assay [2] is CAKI-1 renal.
For assay [3], the system named is COLO 205 colon.
The test system of assay [4] is HCT-15 colon.
For assay [5], the system named is HOP-62 NSCLC.
For assay [6], the system named is HS 578T breast.
The subject of assay [7] is M14 melanoma.
In assay [8] the test system is NCI-H226 lung.
In assay [9] the test system is OVCAR-5 ovarian.
Assay [10] relates to RXF 393 renal.
For assay [11], the system named is SK-MEL-5 melanoma.
Assay [12] has as its system SK-OV-3 ovarian.
Assay [13] has as its system SN12C renal.
The test system of assay [14] is SNB-75 CNS.
Assay [15] relates to T-47D breast.
The subject of assay [16] is UACC-257 melanoma.
In assay [17] the test system is A498 renal.

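1) Cells in 96-well plates. 2) Compound, 48 h, 5 concentrations. 3) Linear interpolation between surrounding doses. 4) Unreached endpoint = highest concentration. TGI is the concentration that stops growth completely.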

What is called TGI is the concentration at which net growth stops.

On to `CC(=O)C(C)(C)CCC(C)(C)C(C)=O`, for which the TGI in assay [1], in assay [2], in [3], in [4], in assay [5] and in [6] was more than 100 µM throughout. The total growth inhibition concentration (TGI) in [7], in assay [8], in [9], in [10], in assay [11] and in assay [12] was more than 100 µM each time. The TGI in assay [13], in [14], in [15] and in assay [16] was more than 100 µM throughout.
Take `CC1(C)Oc2ccc3c(=O)cc(-c4ccccc4)oc3c2C1C(=O)O` (stereo unspecified): the TGI in [17], in assay [2], in assay [3], in assay [4], in assay [5] and in assay [6] was more than 100 µM in each case. In addition, the TGI in assay [7], in assay [8], in [9], in assay [10], in assay [11] and in assay [12] was more than 100 µM in each case. The TGI in assay [13], in [15] and in [16] was more than 100 µM in each case.
Take `COc1cc(N(CCC#N)CCC#N)ccc1/C=N\NC(=O)c1ccc(C)cc1`: the TGI in assay [1], in [2], in assay [3], in [4], in [5] and in assay [6] was more than 100 µM throughout. The concentration for total growth inhibition (TGI) in [7], in assay [8], in assay [9], in assay [10], in [11] and in assay [12] was more than 100 µM each time. For the same molecule, the TGI in assay [13], in assay [14], in assay [15] and in assay [16] was more than 100 µM each time.
On to `COC1=CC(=O)N(C)C(O)C1(C#N)OC1OC(CO)C(O)C(O)C1O` (stereo unspecified), for which the TGI in [17], in [1], in [2], in assay [3], in assay [4] and in assay [5] was more than 100 µM each time. Further, the TGI in [6], in assay [7], in assay [8], in assay [9], in assay [11] and in [12] was more than 100 µM each time. Further, the TGI in [13], in [14], in assay [15] and in [16] was more than 100 µM throughout.
Take `O=C(O)c1cccc(NC(C(=O)c2ccccc2)c2ccccc2)c1` (stereo unspecified): the TGI in [17], in [1], in assay [2], in assay [3], in assay [4] and in assay [5] was more than 100 µM each time. The TGI in assay [6] was 80.6 µM; in assay [7], more than 100 µM; in assay [9] it was more than 100 µM; in [10], more than 100 µM; in assay [11], more than 100 µM; in assay [12] it was more than 100 µM. For the same molecule, the TGI in [13] and in [15] was more than 100 µM throughout.
For `S=C1SC(=Nc2ccccc2)C(=Nc2ccccc2)N1c1ccc2ccccc2c1`, the TGI in [17], in assay [2], in assay [3], in [4], in assay [5] and in assay [6] was more than 100 µM each time. The total growth inhibition concentration (TGI) in assay [7], in assay [8], in assay [9], in assay [10], in [11] and in assay [12] was more than 100 µM each time. Moreover, the concentration for total growth inhibition (TGI) in assay [13], in [14] and in [15] was more than 100 µM throughout.
As to `COC(NC(=O)Nc1ccccc1C)(C(F)(F)F)C(F)(F)F`, the TGI in assay [17], in assay [1], in assay [3], in assay [5], in assay [6] and in assay [7] was more than 100 µM each time. Also, the TGI in assay [8], in [9], in assay [10], in [11], in assay [12] and in assay [13] was more than 100 µM in each case. Besides, the TGI in assay [14] and in assay [15] was more than 100 µM each time.
For the molecule `O=c1[nH]c(=O)n(C2OC(CO)C(O)C2O)cc1OCCCc1ccccc1` (stereo unspecified), the TGI in assay [17], in [1], in assay [2], in [3], in assay [4] and in assay [5] was more than 100 µM each time. The TGI in assay [6], in assay [7], in assay [8], in [9], in assay [10] and in assay [11] was more than 100 µM each time. Also, the TGI in [12], in assay [13], in [15] and in [16] was more than 100 µM each time.
`Cc1cc(-c2nc3cccc(O)c3s2)ccc1N`: the TGI in [1] was 49.9 µM; in [2] it was 71.4 µM; in assay [3], 58.1 µM; in [4] it was more than 100 µM; in assay [5], more than 100 µM; in assay [6] it was 46.4 µM. Besides, the TGI in [7] was 37.7 µM; in assay [8] it was more than 100 µM; in [10] it was more than 100 µM; in assay [11], 48.8 µM; in [12], more than 100 µM; in assay [13], more than 100 µM. Moreover, the TGI in [14], in assay [15] and in [16] was more than 100 µM throughout.
Consider `CC(C)(C)OC(=O)c1ccc(NCC2=C(Br)C(=O)C=CC2=O)cc1`, for which the TGI in assay [1] was 33.6 µM; in assay [2], 26.8 µM; in [3] it was 33.6 µM; in assay [4], 32 µM; in assay [5] it was more than 100 µM; in assay [6] it was 67.3 µM. The TGI in assay [7] is 85.4 µM; in assay [8] it was more than 90.1 µM; in assay [9] it was 56.1 µM; in assay [10], 37.5 µM; in assay [11], 41.6 µM; in assay [12], more than 100 µM. The TGI was 44 µM in assay [13], more than 83.3 µM in assay [14], 41.4 µM in assay [15] and 61.3 µM in [16].
In the case of `CCOC(=O)Nc1ccc(S(=O)(=O)Nn2cnnc2)cc1`, the concentration for total growth inhibition (TGI) in [17] was 96.2 µM; in [1], more than 100 µM; in assay [2], more than 100 µM; in assay [3], more than 100 µM; in assay [4] it was more than 100 µM; in [5], more than 100 µM. Besides, the TGI in assay [6], in [7], in [9], in [10], in assay [11] and in assay [12] was more than 100 µM throughout. The total growth inhibition concentration (TGI) in assay [13], in assay [15] and in assay [16] was more than 100 µM in each case.
`COc1cc2nc(-c3cccs3)nc(Nc3cccc(Cl)c3)c2cc1OC`: the TGI was more than 100 µM in assay [17]; more than 100 µM in assay [1]; more than 100 µM in assay [2]; more than 100 µM in assay [3]; more than 100 µM in assay [4]; 45.3 µM in [5]. In addition, the TGI in assay [6], in assay [7], in [8], in assay [9], in [11] and in assay [12] was more than 100 µM in each case. The TGI in assay [13], in [14], in assay [15] and in assay [16] was more than 100 µM in each case.
Turning to `O=C(OCc1ccccc1)N1CCNCCNCCN(C(=O)OCc2ccccc2)CCNCC1`, the total growth inhibition concentration (TGI) was 70.1 µM in assay [17]; more than 100 µM in [1]; 73.8 µM in assay [2]; 26.8 µM in assay [3]; 50.1 µM in assay [4]; more than 100 µM in [5]. The TGI in [6] was 44 µM; in assay [7], 30.4 µM; in assay [8] it was more than 100 µM; in [9], more than 100 µM; in assay [11], 27.1 µM; in [12] it was more than 100 µM. For the same molecule, the TGI is more than 100 µM in [13], 53 µM in assay [14], 41 µM in assay [15] and 32 µM in assay [16].
In the case of `CC1CCC2(OC1)OC1C(O)C3C4CCC5CC(OC6OC(CO)C(OC7OC(CO)C(O)C(OC8OCC(O)C(O)C8O)C7OC7OC(CO)C(O)C(OC8OC(CO)C(O)C(O)C8O)C7O)C(O)C6O)C(O)CC5(C)C4CCC3(C)C1C2C` (stereo unspecified), the TGI worked out at 46.6 µM in assay [17]; 3.08 µM in assay [1]; 2.68 µM in [2]; 3.6 µM in assay [3]; 12.2 µM in assay [4]; 3.92 µM in [5]. Moreover, the TGI in assay [6] amounted to 4.5 µM; in assay [7] it was 24.9 µM; in assay [8] it was 3.33 µM; in [9], 4.12 µM; in assay [11] it was 15.9 µM; in assay [12] it was 5.57 µM. Moreover, the TGI came out at 9.88 µM in [13], 7.76 µM in assay [14], 10.4 µM in [15] and 22.9 µM in [16].
